Reference: PubChem BioAssay AID248 (DTP/NCI, 2004)
“And” between values parts separate entries of the source, which are not always exact repeats. Equal entries are not always repeated. Toxic doses and inconclusive results are not listed. Cut-off read from the data, not from the text of the source: active = T/C of 150% or more; inactive = T/C below 125%.

System: L1210 leukemia ip in BDF1 mice, survival T/C
Assay: NCI In Vivo Anticancer Drug Screen. Data for tumor model L1210 Leukemia (intraperitoneal) in B6D2F1 (BDF1) mice
Settings: endpoint: mean survival time, higher = longer survival
Procedure, shortened: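 Antitumor effect is assessed in tumor-bearing animals. Survival in the compound arm is compared with a vehicle-dosed control arm and expressed as their quotient.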

[1] = dose: 100.0 mg/kg/injection, schedule: Q04DX002 (ip), vehicle: Klucel (hydroxypropylcellulose) (HPC)
[2] = dose: 200.0 mg/kg/injection, schedule: Q04DX002 (ip), vehicle: Klucel (hydroxypropylcellulose) (HPC)
[3] = dose: 400.0 mg/kg/injection, schedule: Q04DX002 (ip), vehicle: Klucel (hydroxypropylcellulose) (HPC)
[4] = dose: 100.0 mg/kg/injection, schedule: Q04DX003 (ip), vehicle: Klucel (hydroxypropylcellulose) (HPC)
[5] = dose: 200.0 mg/kg/injection, schedule: Q04DX003 (ip), vehicle: Klucel (hydroxypropylcellulose) (HPC)
[6] = dose: 400.0 mg/kg/injection, schedule: Q04DX003 (ip), vehicle: Klucel (hydroxypropylcellulose) (HPC)
[7] = dose: 100.0 mg/kg/injection, schedule: Q01DX001 (ip), vehicle: Klucel (hydroxypropylcellulose) (HPC)
[8] = dose: 100.0 mg/kg/injection, schedule: Q01DX009 (ip), vehicle: Klucel (hydroxypropylcellulose) (HPC)
[9] = dose: 200.0 mg/kg/injection, schedule: Q01DX001 (ip), vehicle: Klucel (hydroxypropylcellulose) (HPC)
[10] = dose: 200.0 mg/kg/injection, schedule: Q01DX009 (ip), vehicle: Klucel (hydroxypropylcellulose) (HPC)
[11] = dose: 400.0 mg/kg/injection, schedule: Q01DX001 (ip), vehicle: Klucel (hydroxypropylcellulose) (HPC)
[12] = dose: 400.0 mg/kg/injection, schedule: Q01DX009 (ip), vehicle: Klucel (hydroxypropylcellulose) (HPC)
[13] = dose: 100.0 mg/kg/injection, schedule: Q01DX001 (ip), vehicle: saline
[14] = dose: 200.0 mg/kg/injection, schedule: Q01DX001 (ip), vehicle: saline
[15] = dose: 400.0 mg/kg/injection, schedule: Q01DX001 (ip), vehicle: saline
[16] = dose: 100.0 mg/kg/injection, schedule: Q01DX009 (ip), vehicle: saline
[17] = dose: 200.0 mg/kg/injection, schedule: Q01DX009 (ip), vehicle: saline

Measured: T/C

CC(NC(=O)NC(C)(C)C)c1ccccc1 (stereo not given)
inactive: [1] 102 % of control | [2] 105 % of control | [3] 121 % of control

C[n+]1cc(C#N)cc(C#N)c1
inactive: dose: 75.0 mg/kg/injection, schedule: Q01DX001 (ip), vehicle: saline 90 % of control | dose: 150.0 mg/kg/injection, schedule: Q01DX001 (ip), vehicle: saline 108 % of control

CCc1ccc(N=C/C=C/c2ccccc2)cc1
inactive: dose: 25.0 mg/kg/injection, schedule: Q01DX009 (ip), vehicle: other 98 % of control | dose: 50.0 mg/kg/injection, schedule: Q01DX009 (ip), vehicle: other 98 % of control | dose: 100.0 mg/kg/injection, schedule: Q01DX009 (ip), vehicle: other 98 % of control and 110 % of control

COc1ccc(C(C#N)N2CCCCC2)cc1 (stereo not given)
inactive: dose: 25.0 mg/kg/injection, schedule: Q01DX009 (ip), vehicle: Klucel (hydroxypropylcellulose) (HPC) 102 % of control | dose: 50.0 mg/kg/injection, schedule: Q01DX009 (ip), vehicle: Klucel (hydroxypropylcellulose) (HPC) 101 % of control | [4] 95 % of control | [5] 111 % of control | [6] 101 % of control

CS(=O)(=O)Oc1cccc(C2CS(=O)(=O)c3ccccc3N2)c1 (stereo not given)
inactive: [7] 101 % of control | [8] 104 % of control | [4] 97 % of control | [9] 106 % of control | [10] 101 % of control | [5] 97 % of control | [11] 103 % of control | [12] 101 % of control | [6] 94 % of control

Nc1ccccc1SC(CC(=O)c1ccccc1)c1cccc([N+](=O)[O-])c1 (stereo not given)
inactive: dose: 100.0 mg/kg/injection, schedule: Q01DX005 (ip), vehicle: Klucel (hydroxypropylcellulose) (HPC) 112 % of control | [1] 95 % of control | dose: 200.0 mg/kg/injection, schedule: Q01DX005 (ip), vehicle: Klucel (hydroxypropylcellulose) (HPC) 105 % of control | [10] 87 % of control | [2] 110 % of control | dose: 400.0 mg/kg/injection, schedule: Q01DX005 (ip), vehicle: Klucel (hydroxypropylcellulose) (HPC) 91 % of control | [3] 89 % of control

Fc1ccc2c(c1)CC(CBr)O2 (stereo not given)
inactive: dose: 50.0 mg/kg/injection, schedule: Q01DX001 (ip), vehicle: saline 100 % of control | [13] 105 % of control | [14] 103 % of control | [15] 103 % of control

O=C1C=CC(=O)N1CN1CCOCC1 (tested in a mixture with another compound)
inactive: dose: 6.25 mg/kg/injection, schedule: Q01DX009 (ip), vehicle: saline 92 % of control | dose: 12.5 mg/kg/injection, schedule: Q01DX009 (ip), vehicle: saline 100 % of control | [7] 103 % of control and 100 % of control | [9] 103 % of control and 100 % of control and 97 % of control | [11] 95 % of control [middle of 4 runs]

C1CCC2C3CCC(C3)C2CC1 (stereo not given)
inactive: dose: 100.0 mg/kg/injection, schedule: Q04DX002 (ip), vehicle: other 122 % of control | dose: 200.0 mg/kg/injection, schedule: Q04DX002 (ip), vehicle: other 92 % of control | dose: 400.0 mg/kg/injection, schedule: Q04DX002 (ip), vehicle: other 88 % of control

COc1ccc(C=NC2C(OC(C)=O)OC(COC(C)=O)C(OC(C)=O)C2OC(C)=O)cc1 (stereo not given)
inactive: [13] 98 % of control | [14] 98 % of control | [15] 98 % of control

N#Cc1c(N)sc2c1CCCC2
inactive: dose: 100.0 mg/kg/injection, schedule: Q01DX009 (ip), vehicle: saline with Tween-80 98 % of control | dose: 100.0 mg/kg/injection, schedule: Q04DX003 (ip), vehicle: saline with Tween-80 102 % of control | dose: 200.0 mg/kg/injection, schedule: Q01DX009 (ip), vehicle: saline with Tween-80 95 % of control | dose: 200.0 mg/kg/injection, schedule: Q04DX003 (ip), vehicle: saline with Tween-80 98 % of control | dose: 400.0 mg/kg/injection, schedule: Q01DX009 (ip), vehicle: saline with Tween-80 101 % of control | dose: 400.0 mg/kg/injection, schedule: Q04DX003 (ip), vehicle: saline with Tween-80 101 % of control

Cc1ccc([N+](=O)[O-])cc1NC(=O)COc1ccc(Cl)cc1Cl
inactive: [8] 96 % of control | [4] 95 % of control | [10] 91 % of control | [5] 102 % of control | [12] 94 % of control | [6] 91 % of control

O=C1CSCc2ccccc21
inactive: [1] 103 % of control | [2] 95 % of control | [3] 95 % of control

CC1CC[N-]CC1.CC1CC[N-]CC1.CC1CC[N-]CC1.CC1CC[N-]CC1.O=C([O-])C(=O)[O-].O=C([O-])C(=O)[O-].[Nb+5].[O-][O-].[O-][O-].[Pt+4]
inactive: dose: 0.25 mg/kg/injection, schedule: Q01DX009 (ip), vehicle: saline 96 % of control | dose: 0.39 mg/kg/injection, schedule: Q04DX003 (ip), vehicle: saline 110 % of control | dose: 0.5 mg/kg/injection, schedule: Q01DX009 (ip), vehicle: saline 93 % of control | dose: 0.78 mg/kg/injection, schedule: Q04DX003 (ip), vehicle: saline 110 % of control | dose: 1.0 mg/kg/injection, schedule: Q01DX009 (ip), vehicle: saline 98 % of control | dose: 1.56 mg/kg/injection, schedule: Q04DX003 (ip), vehicle: saline 101 % of control | dose: 2.0 mg/kg/injection, schedule: Q01DX009 (ip), vehicle: saline 102 % of control | dose: 3.12 mg/kg/injection, schedule: Q04DX003 (ip), vehicle: saline 96 % of control and 111 % of control

C=CCN(CC=C)P(=O)(OCC)OCC
inactive: dose: 12.5 mg/kg/injection, schedule: Q04DX003 (ip), vehicle: saline 105 % of control | dose: 25.0 mg/kg/injection, schedule: Q01DX009 (ip), vehicle: saline 97 % of control and 100 % of control | dose: 25.0 mg/kg/injection, schedule: Q04DX003 (ip), vehicle: saline 112 % of control | dose: 50.0 mg/kg/injection, schedule: Q01DX009 (ip), vehicle: saline 98 % of control and 105 % of control | dose: 50.0 mg/kg/injection, schedule: Q04DX003 (ip), vehicle: saline 108 % of control | [16] 104 % of control and 91 % of control | dose: 100.0 mg/kg/injection, schedule: Q04DX003 (ip), vehicle: saline 105 % of control | [17] 97 % of control and 92 % of control | dose: 200.0 mg/kg/injection, schedule: Q04DX003 (ip), vehicle: saline 94 % of control

COc1cc(Cl)ccc1NC(=O)Oc1ccc(NC(C)=O)cc1
inactive: [16] 110 % of control | [17] 92 % of control | dose: 400.0 mg/kg/injection, schedule: Q01DX009 (ip), vehicle: saline 103 % of control

O=C1C=C(c2c(O)ccc3ccccc23)c2ccccc2C1=O
inactive: dose: 50.0 mg/kg/injection, schedule: Q01DX001 (ip), vehicle: carboxymethylcellulose (CMC) 96 % of control | dose: 100.0 mg/kg/injection, schedule: Q01DX001 (ip), vehicle: carboxymethylcellulose (CMC) 100 % of control | dose: 200.0 mg/kg/injection, schedule: Q01DX001 (ip), vehicle: carboxymethylcellulose (CMC) 96 % of control | dose: 400.0 mg/kg/injection, schedule: Q01DX001 (ip), vehicle: carboxymethylcellulose (CMC) 110 % of control

COc1nc(N)c(C(N)=O)cc1C#N
inactive: dose: 87.0 mg/kg/injection, schedule: Q04DX003 (ip), vehicle: Klucel (hydroxypropylcellulose) (HPC) 97 % of control

NNC(=O)NC(=O)NN
inactive: dose: 9.61 mg/kg/injection, schedule: Q01DX Z (ip), vehicle: carboxymethylcellulose (CMC) 103 % of control | dose: 19.23 mg/kg/injection, schedule: Q01DX Z (ip), vehicle: carboxymethylcellulose (CMC) 90 % of control | dose: 38.45 mg/kg/injection, schedule: Q01DX Z (ip), vehicle: carboxymethylcellulose (CMC) 95 % of control | dose: 76.9 mg/kg/injection, schedule: Q01DX Z (ip), vehicle: carboxymethylcellulose (CMC) 116 % of control | [13] 103 % of control | [14] 108 % of control
